Results: publication PMC6271893, “In Vitro Antioxidant and Cytotoxic Activity of Some Synthetic Riparin-Derived Compounds” (Molecules, 2014)
Values after ≈ are worked out from the molar mass of the structure shown. Where two headings read alike, the source gives them in different places. Marks after values point to notes of the source that are not given here.

What was measured:
[1] = tested on: tumor cells lines (leukemia and lung and laryngeal carcinoma); experiment: Cytotoxicity on tumor cell lines, summary statements over the lines (MTT); format: cell-based; details: Homo sapiens; for IC50: leukemia and lung and laryngeal carcinoma, read-out: IC50 values on neoplastic cells (range over cell lines); for inhibition at 25 µg/mL: tumor cells lines, cytotoxicity samples tested at 25 µg/mL, read-out: cell growth inhibition rates
Experimental: (§1) For the in vitro antioxidant tests the samples were emulsified in 0.05% Tween 80 dissolved in saline 0.9% (used as the vehicle) and tested at concentrations of 1, 5, 10, 25 and 100 µg/mL. The samples for the cytotoxicity tests were diluted in pure and sterile DMSO and tested at concentrations of 25 µg/mL.
(§2) Cells were maintained at 37 °C with 5% CO2 in RPMI 1640 (Himedia^TM, Mumbai, India) or DMEM medium (Gibco^TM, Grand Island, NY, USA) supplemented with 2 mM glutamine, 100 U/mL penicillin, 100 μg/mL streptomycin. The antiproliferative activities of riparins were evaluated in the following human cancer cells lineage: HL-60 (pro-myelocytic leukemia), NCIH-292 (lung carcinoma), and HEP-2 (laryngeal carcinoma) obtained from the Rio de Janeiro Cell Bank (RJ-Brazil). For all experiments, 100 µL of tumor cells were plated in 96-well plates (6 × 10^4 cells/cm^2 for adherent cells or 9 × 10^4 cells/cm^2 for leukemia). Tested compounds (0.1–25 μg/mL) dissolved in 1% DMSO (100 µL) were added to each well and incubated for 72 h. Control groups received the same amount of DMSO. After 69 h of treatment, 25 μL of MTT (5 mg/mL) were added. Three hours later, the MTT formazan product was dissolved in 100 μL of DMSO, and absorbance was measured at 595 nm using a multiplate reader (Thermo Plate®, TP Reader, São Paulo, SP, Brasil).

[2] = Hydroxyl radical scavenging activity (2-deoxyribose degradation, Fenton reaction); details: for IC50 OH radical: hydroxyl radical content
Experimental: as §1
The formation of OH radicals from Fenton reagents was quantified using the condensation product of the 2-deoxyribose oxidative degradation product, malonaldehyde, with 2-thiobarbituric acid (TBA). Briefly, typical reactions were started by the addition of Fe^2+ (FeSO4 6 mM final concentration) to solutions containing 5 mM 2-deoxyribose, 100 mM H2O2 and 20 mM phosphate buffer (pH 7.2). In order to determine the antioxidant activity of the riparins against the hydroxyl radical, individual tests were performed on each one of the six substances, in which different concentrations of the riparins were added to the system before Fe^2+ addition (Rip-A; Rip-B; Rip-C; Rip-D; Rip-E and Rip-F). Reactions were carried out for 15 min at room temperature and were quenched by the addition of phosphoric acid 4% (v/v), followed by TBA 1% (thiobarbituric acid, v/v in 50 μL NaOH). The solutions were boiled for 15 min to 95 °C and then cooled at room temperature. The absorbance was measured at 532 nm and the results were expressed as MDA equivalents formed by Fe^2+ and H2O2 [25].

[3] = tested on: HL-60 (pro-myelocytic leukemia); experiment: Cytotoxicity against tumor cell lines (MTT); format: cell-based; details: Homo sapiens, 72 h, 95% confidence interval in brackets, read-out: IC50 values and confidence intervals, HL-60
Experimental: as §2
(§3) The obtained data were evaluated by one-way analysis of variance (ANOVA) followed by a Student Newman Keuls post hoc test. The data concerning release percentage of cytoplasmatic enzyme lactate dehydrogenase (LDH) were reported by mean ± standard deviation and evaluated by one-way analysis of variance (ANOVA) followed by a Tukey post hoc test. In all cases differences were considered significant if p < 0.05, the means and respective standard errors were analyzed in the Graph Pad Prism version 5.0 for Windows software (GraphPad Software Incorporated, San Diego, CA, USA).

[4] = tested on: NCIH-292 (lung carcinoma); experiment: Cytotoxicity against tumor cell lines (MTT); format: cell-based; details: Homo sapiens, NCI-H292, 72 h, 95% confidence interval in brackets, read-out: IC50 values and confidence intervals, NCIH-292
Experimental: as §2, §3

[5] = Antioxidant potential against the formation of TBARS (AAPH-induced lipid peroxidation of egg yolk homogenate); details: for IC50 TBARS: TBARS production
Experimental: as §1
The TBARS assay was employed to quantify lipid peroxidation and an adapted TBARS method was used to measure the antioxidant capacity of the riparins (Rip-A, -B, -C, -D, -E and -F) using egg yolk homogenate as lipid rich substrate. Egg yolk was homogenized (1% w/v) in 20 mM phosphate buffer (pH 7.4), 1 mL of homogenate was sonicated and then homogenized with 0.1 mL of the samples at concentrations of 1, 5, 10, 25 and 100 µg/mL. Lipid peroxidation was induced by the addition of 0.1 mL of 2,2'-azobis(2-methylpropionamidine) dihydrochloride solution (AAPH; 0.12 M). Control was evaluated with only the vehicle. Reactions were carried out for 15 minutes at 37 °C. After cooling, samples (0.5 mL) were centrifuged with 0.5 mL of trichloroacetic acid (15%) at 1,200 ×g for 10 min. An aliquot of 0.5 mL from supernatant was mixed with 0.5 mL TBA (0.67%) and heated at 95 °C for 30 min. After cooling, sample absorbance was measured using a spectrophotometer at 532 nm. The results were expressed as percentage of TBARS formed by AAPH alone (induced control).

[6] = Scavenging activity of nitric oxide (nitrite production induced by SNP, Griess reaction); details: for IC50 Nitrite: nitrite formation
Experimental: as §1
Nitric oxide was generated from spontaneous decomposition of sodium nitroprusside in 20 mM phosphate buffer (pH 7.4). Once generated, NO interacts with oxygen to produce nitrite ions, which are measured by the Griess reaction. The reaction mixture (1 mL) containing 10 mM sodium nitroprusside (SNP) in phosphate buffer and the riparins at various concentrations of 1, 5, 10, 25 and 100 µg/mL were incubated at 37 °C for 1 h. A 0.5 mL aliquot was taken and homogenized with 0.5 mL Griess reagent. The absorbance of chromophore was measured at 540 nm. Percent inhibition of generated nitric oxide was measured by comparing the absorbance values of negative controls (only 10 mM sodium nitroprusside and vehicle) to assay preparations. Results were expressed as percentage of nitrite formed by SNP alone.

[7] = tested on: murine peritoneal macrophages RAW 264.7; experiment: Cytotoxicity assay on RAW 264.7 (LDH release); format: cell-based
Experimental: Murine peritoneal macrophages of the cell line RAW 264.7 were obtained from the American Type Culture Collection (ATCC, Rockville, MD, USA), and cultured at 37 °C with CO2 at 5% in DMEM-F12 supplemented with 10% fetal bovine serum (FBS; Hyclone^TM, Logan, UT, USA) and gentamicin (50 μg/mL). RAW 264.7 cells (5 × 10^5 cells/mL) were cultured and incubated for 24 h with the riparins A, B, C, D, E and F at the final concentration of 25 µg/mL […]. The cytotoxicity assay was performed by LDH assay. The release of LDH (cytoplasmic lactate dehydrogenase enzyme) was determined using 50 μL of culture supernatant with 100 μL of LDH substrate plus and 5 μL ferric alum (5 mg/mL), at 37 °C for 3 min. Then, 100 μL of the NAD solution and phenazine methosulphate were added to the mixture, maintaining the temperature at 37 °C for 5 min (Labrax Commercial Kit, Clontech, Palo Alto, CA, USA). LDH is an oxidoreductase which catalyzes the interconversion of lactate and pyruvate and, for being a stable cytosolic enzyme, after damage to cell membrane it is released in the cellular environment and because of this LDH is an indirect indicator of cytotoxicity. LDH concentration was determined by colorimetry at 492 nm. The specific release of LDH was calculated as percentage of the controls (not treated cells as negative control and cells treated with 1%Triton X-100 as positive control).
as §3

[8] = tested on: HEP-2 (laryngeal carcinoma); experiment: Cytotoxicity against tumor cell lines (MTT); format: cell-based; details: Homo sapiens, 72 h, 95% confidence interval in brackets, read-out: IC50 values and confidence intervals, HEP-2
Experimental: as §2, §3

[9] = 140 μg/mL (standard antioxidant)

Compound	2-Deoxyribose degradation (%) ([2]; 1 μg/mL)	2-Deoxyribose degradation (%) ([2]; 5 μg/mL)	2-Deoxyribose degradation (%) ([2]; 10 μg/mL)	2-Deoxyribose degradation (%) ([2]; 25 μg/mL)	2-Deoxyribose degradation (%) ([2]; 100 μg/mL)	IC50 OH radical [2]	IC50 [3]	IC50 [4]	TBARS levels (% AAPH) ([5]; 1 μg/mL)	TBARS levels (% AAPH) ([5]; 5 μg/mL)	TBARS levels (% AAPH) ([5]; 10 μg/mL)	TBARS levels (% AAPH) ([5]; 25 μg/mL)	TBARS levels (% AAPH) ([5]; 100 μg/mL)	IC50 TBARS [5]	Nitrite Production (% induced by SNP) ([6]; 1 μg/mL)	Nitrite Production (% induced by SNP) ([6]; 5 μg/mL)	Nitrite Production (% induced by SNP) ([6]; 10 μg/mL)	Nitrite Production (% induced by SNP) ([6]; 25 μg/mL)	Nitrite Production (% induced by SNP) ([6]; 100 μg/mL)	IC50 Nitrite [6]	also measured
O=C(NCCc1ccccc1)c1c(O)cccc1O [Rip-E, 2,6-Dihydroxy-N-phenethylbenzamide]	79.9 ± 0.64 ^a %	62.2 ± 2.14 ^a %	53.4 ± 1.79 ^a %	51.4 ± 1.47 ^a %	49.4 ± 0.85 ^a %	1.054 µg/mL (≈ 4.1 µM)	1.9 µg/mL (≈ 7.38 µM)	> 25 µg/mL	41.4 ± 0.69 ^a %	38.6 ± 0.63 ^a %	35.5 ± 0.37 ^a %	31.3 ± 0.76 ^a %	28.2 ± 0.39 ^a %	0.7821 µg/mL (≈ 3.04 µM)	65.9 ± 1.30 ^a %	37.7 ± 0.95 ^a %	25.1 ± 1.37 ^a %	20.1 ± 0.71 ^a %	15.4 ± 1.11 ^a %	0.5224 µg/mL (≈ 2.03 µM)	IC50 [1]: 1.9 to 11.4 µg/mL (≈ 7.38 to 44.3 µM); inhibition at 25 µg/mL [1]: > 70%; melting point: 155 °C; LDH % Release ([7]; 25 µg/mL, RAW 264.7): 96.91%; LDH % Release ([7]; 25 µg/mL, RAW 264.7, listed as riparin E): greater than 80%
Triton X-100 [Triton X-100 1%, reference compound]																					LDH % Release [7]: 99.96%
O=C(NCCc1ccccc1)c1ccccc1O [Rip-C, 2-Hydroxy-N-phenethylbenzamide]	95.5 ± 1.30 ^a %	80.9 ± 1.29 ^a %	58.7 ± 1.37 ^a %	52.1 ± 0.13 ^a %	46.7 ± 0.35 ^a %	0.9516 µg/mL (≈ 3.94 µM)	3.3 µg/mL (≈ 13.7 µM)	> 25 µg/mL	39.3 ± 0.60 ^a %	38.8 ± 1.07 ^a %	34.3 ± 0.92 ^a %	29.5 ± 1.91 ^a %	25.7 ± 2.62 ^a %	0.8971 µg/mL (≈ 3.72 µM)	69.3 ± 1.07 ^a %	34.9 ± 0.23 ^a %	22.9 ± 1.31 ^a %	19.8 ± 0.83 ^a %	16.5 ± 1.44 ^a %	0.7240 µg/mL (≈ 3 µM)	IC50 [1]: 1.9 to 11.4 µg/mL (≈ 7.87 to 47.2 µM); inhibition at 25 µg/mL [1]: > 70%; IC50 [8]: 7.3 µg/mL (≈ 30.3 µM); melting point: 95 °C; LDH % Release ([7]; 25 µg/mL, RAW 264.7): 87.35%; LDH % Release ([7]; 25 µg/mL, RAW 264.7, listed as riparin C): greater than 80%
O=C(NCCc1ccccc1)c1ccccc1 [Rip-A, N-Phenethylbenzamide]	97.1 ± 0.78 ^a %	76.9 ± 1.10 ^a %	54.5 ± 0.85 ^a %	49.6 ± 0.89 ^a %	44.8 ± 0.30 ^a %	1.501 µg/mL (≈ 6.66 µM)	> 25 µg/mL	> 25 µg/mL	40.9 ± 1.77 ^a %	38.1 ± 0.49 ^a %	36.7 ± 0.66 ^a %	35.1 ± 0.88 ^a %	25.8 ± 0.48 ^a %	1.147 µg/mL (≈ 5.09 µM)	75.1 ± 1.31 ^a %	29.1 ± 0.61 ^a %	29.2 ± 2.05 ^a %	24.3 ± 0.62 ^a %	20.4 ± 1.20 ^a %	0.8404 µg/mL (≈ 3.73 µM)	IC50 [8]: > 25 µg/mL; LDH % Release ([7]; 25 µg/mL, RAW 264.7): 28.13%
COc1ccc(CCNC(=O)c2ccccc2)cc1OC [Rip-B, N-[2-(3,4-Dimethoxyphenyl)ethyl]benzamide]	98.4 ± 0.39 ^a %	79.8 ± 1.34 ^a %	58.5 ± 0.85 ^a %	47.7 ± 0.44 ^a %	47.2 ± 0.43 ^a %	1.639 µg/mL (≈ 5.74 µM)	> 25 µg/mL	> 25 µg/mL	44.5 ± 1.31 ^a %	40.4 ± 0.85 ^a %	38.3 ± 1.05 ^a %	36.5 ± 1.21 ^a %	29.7 ± 1.31 ^a %	1.032 µg/mL (≈ 3.62 µM)	75.8 ± 1.02 ^a %	34.1 ± 1.85 ^a %	29.1 ± 2.00 ^a %	23.1 ± 0.97 ^a %	20.6 ± 0.98 ^a %	0.7948 µg/mL (≈ 2.79 µM)	IC50 [8]: > 25 µg/mL; melting point: 90 °C; LDH % Release ([7]; 25 µg/mL, RAW 264.7): 17.31%
Cc1c(C)c2c(c(C)c1O)CCC(C)(C(=O)O)O2 (stereo not shown) [Trolox, reference compound]																					2-Deoxyribose degradation (%) [2, 9]: 21.4 ± 0.95 ^a %; TBARS levels (% AAPH) [5, 9]: 55.3 ± 6.48 ^a %; Nitrite Production (% induced by SNP) [6, 9]: 40.2 ± 2.80 ^a %
